Numbered stars: 1 amine (or outer) side, 2 acyl side, 3 side chain; on linkers, the order of the positions; unused ones are H or OH. Bridge positions count the residues as written; N and C are the ends. Square brackets hold non-standard residues; d marks the D form. Peptide text beside a SMILES is read from it. Hyp = O=C(O)[C@@H]1C[C@@H](O)CN1; tBuAla = CC(C)(C)C[C@H](N)C(=O)O; X1 = O=C(CCC[*:2])[*:1]; βAla = NCCC(=O)O; Mpa = O=C(O)CCS
Legend:
[1] = biological target: T1, Vasopressin V1b receptor (Homo sapiens, UniProt P47901); assay: Agonist activity at human V1b receptor expressed in CHO cells assessed as calcium mobilization measured after 30 mins by Fluo-4-AM dye based FLIPR assay; format: cell-based
T1 sequence (P47901 whole entry): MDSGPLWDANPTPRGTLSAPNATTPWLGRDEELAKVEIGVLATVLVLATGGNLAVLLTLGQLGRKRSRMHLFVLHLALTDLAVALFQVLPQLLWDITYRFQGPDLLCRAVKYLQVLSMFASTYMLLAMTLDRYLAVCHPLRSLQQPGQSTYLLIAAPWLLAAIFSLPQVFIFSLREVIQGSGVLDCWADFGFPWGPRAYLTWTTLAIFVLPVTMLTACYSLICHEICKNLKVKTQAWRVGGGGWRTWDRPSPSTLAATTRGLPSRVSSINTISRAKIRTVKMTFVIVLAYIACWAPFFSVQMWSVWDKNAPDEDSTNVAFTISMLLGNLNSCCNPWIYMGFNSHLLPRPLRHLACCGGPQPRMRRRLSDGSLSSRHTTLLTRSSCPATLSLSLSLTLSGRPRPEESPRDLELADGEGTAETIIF

[2] = organism: Homo sapiens; assay: Selectivity ratio of EC50 for human V1b receptor to EC50 for human OTR
[3] = organism: Homo sapiens; assay: Selectivity ratio of EC50 for human V1a receptor to EC50 for human OTR
[4] = biological target: Vasopressin V1a receptor (Homo sapiens, UniProt P37288); assay: Agonist activity at human V1a receptor expressed in CHO cells assessed as calcium mobilization measured after 30 mins by Fluo-4-AM dye based FLIPR assay; format: cell-based
[5] = biological target: T2, Oxytocin receptor (Homo sapiens, UniProt P30559); assay: Agonist activity at human OTR expressed in CHO cells assessed as calcium mobilization measured after 30 mins by Fluo-4-AM dye based FLIPR assay; format: functional, cell-based
T2 sequence (P30559 whole entry): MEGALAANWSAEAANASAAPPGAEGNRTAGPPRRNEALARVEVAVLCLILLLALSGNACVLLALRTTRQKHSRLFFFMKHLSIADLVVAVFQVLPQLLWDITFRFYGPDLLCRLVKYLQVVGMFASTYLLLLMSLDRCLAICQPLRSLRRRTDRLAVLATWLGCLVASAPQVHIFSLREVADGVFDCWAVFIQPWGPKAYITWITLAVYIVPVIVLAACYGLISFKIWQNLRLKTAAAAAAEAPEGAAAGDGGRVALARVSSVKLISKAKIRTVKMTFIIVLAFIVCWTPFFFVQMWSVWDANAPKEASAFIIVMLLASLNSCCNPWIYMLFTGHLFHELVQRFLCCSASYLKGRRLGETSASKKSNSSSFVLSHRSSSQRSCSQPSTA

Sequence of Vasopressin V1a receptor (P37288 whole entry): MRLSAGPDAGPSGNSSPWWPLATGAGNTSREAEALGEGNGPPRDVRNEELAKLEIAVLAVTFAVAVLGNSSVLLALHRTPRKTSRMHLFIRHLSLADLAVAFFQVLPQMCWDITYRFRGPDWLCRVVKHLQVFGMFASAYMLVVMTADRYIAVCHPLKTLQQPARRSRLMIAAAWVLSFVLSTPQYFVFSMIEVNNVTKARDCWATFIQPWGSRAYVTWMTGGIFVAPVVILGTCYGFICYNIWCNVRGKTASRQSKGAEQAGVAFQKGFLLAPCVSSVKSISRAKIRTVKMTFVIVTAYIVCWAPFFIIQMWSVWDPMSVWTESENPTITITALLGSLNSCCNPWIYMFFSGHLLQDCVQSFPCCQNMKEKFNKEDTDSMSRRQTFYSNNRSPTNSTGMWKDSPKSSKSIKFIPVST

SMILES	EC50 [1] [nM]	Ratio EC50 [2]	Ratio EC50 [3]	EC50 [4] [nM]	EC50 [5] [nM]
CC(C)C[C@H](NC(=O)[C@@H]1CCCN1C(=O)[C@@H]1CSSCCC(=O)N[C@@H](Cc2ccc(O)cc2)C(=O)N[C@@H](Cc2ccccc2)C(=O)N[C@@H](CCC(N)=O)C(=O)N[C@@H](CC(N)=O)C(=O)N1)C(=O)NCC(N)=O ([Mpa]YFQNCPLG-NH2; disulfide 1-6)	0.43	3.9	> 100	> 100	0.11
CC[C@H](C)[C@@H]1NC(=O)[C@H](Cc2ccc(O)cc2)NC(=O)CCSSC[C@@H](C(=O)N2C[C@@H](O)C[C@H]2C(=O)N[C@@H](CC(C)C)C(=O)NCC(N)=O)NC(=O)[C@H](CC(N)=O)NC(=O)[C@H](CCC(N)=O)NC1=O	8.2	1200	> 10000	> 100	0.007
CC[C@H](C)[C@@H]1NC(=O)[C@H](Cc2ccc(O)cc2)NC(=O)CCCSC[C@@H](C(=O)N2C[C@H](O)C[C@H]2C(=O)N[C@@H](CC(C)(C)C)C(=O)NCC(N)=O)NC(=O)[C@H](CC(N)=O)NC(=O)[C@H](CCC(N)=O)NC1=O (YIQNC[Hyp][tBuAla]G-NH2; linker N-5 via X1)	> 100	> 10000	> 10000	> 100	0.0072
CC[C@H](C)[C@@H]1NC(=O)[C@H](Cc2ccc(O)cc2)NC(=O)CCSSC[C@@H](C(=O)N2CCC[C@H]2C(=O)N[C@@H](CC2CCCCC2)C(=O)NCC(N)=O)NC(=O)[C@H](CC(N)=O)NC(=O)[C@H](CCC(N)=O)NC1=O	1.4	140	> 1000	> 100	0.01
CC(C)C[C@H](NC(=O)[C@@H]1CCCN1C(=O)[C@@H]1CSSCCC(=O)N[C@@H](Cc2ccc(O)cc2)C(=O)N[C@@H](CO)C(=O)N[C@@H](CCC(N)=O)C(=O)N[C@@H](CC(N)=O)C(=O)N1)C(=O)NCC(N)=O ([Mpa]YSQNCPLG-NH2; disulfide 1-6)	> 100	> 2	> 2	> 100	40
CC[C@H](C)[C@@H]1NC(=O)[C@H](Cc2ccc(O)cc2)NC(=O)CCNC(=O)C[C@@H](C(=O)N2CCC[C@H]2C(=O)N[C@@H](CC(C)C)C(=O)NCC(N)=O)NC(=O)[C@H](CC(N)=O)NC(=O)[C@H](CCC(N)=O)NC1=O ([βAla]YIQNDPLG-NH2; lactam N-6)	> 100	> 7.7	> 7.7	> 100	13
CC[C@H](C)[C@@H]1NC(=O)[C@H](Cc2ccc(O)cc2)NC(=O)CCSSC[C@@H](C(=O)N2CCC[C@H]2C(=O)N[C@@H](CC(C)C)C(=O)NCC(N)=O)NC(=O)[C@H](CC(N)=O)NC(=O)[C@H](Cc2ccccc2)NC1=O ([Mpa]YIFNCPLG-NH2; disulfide 1-6)	> 100	> 4	> 4	> 100	22
CCCCCC[C@H](NC(=O)[C@@H]1CCCN1C(=O)[C@@H]1CSSCCC(=O)N[C@@H](Cc2ccc(O)cc2)C(=O)N[C@@H]([C@@H](C)CC)C(=O)N[C@@H](CCC(N)=O)C(=O)N[C@@H](CC(N)=O)C(=O)N1)C(=O)NCC(N)=O	0.55	20	120	3.1	0.027
CC[C@H](C)[C@@H]1NC(=O)[C@H](Cc2ccc(O)cc2)NC(=O)CCSSC[C@@H](C(=O)N2CCC[C@H]2C(=O)N[C@@H](CC(C)C)C(=O)NCC(N)=O)NC(=O)[C@H](CC(N)=O)NC(=O)[C@H](C)NC1=O ([Mpa]YIANCPLG-NH2; disulfide 1-6)	69	290	> 100	> 100	0.24
CC[C@H](C)[C@@H]1NC(=O)[C@H](Cc2ccc(O)cc2)NC(=O)CCSSC[C@@H](C(=O)N2CCC[C@H]2C(=O)N[C@@H](CC(C)C)C(=O)NCC(N)=O)NC(=O)[C@H](CC(N)=O)NC(=O)[C@H](CO)NC1=O ([Mpa]YISNCPLG-NH2; disulfide 1-6)	8.9	120	> 1000	> 100	0.072
CC[C@H](C)[C@@H]1NC(=O)[C@H](Cc2ccc(O)cc2)NC(=O)CCSSC[C@@H](C(=O)N2CCC[C@H]2C(=O)N[C@@H](CO)C(=O)NCC(N)=O)NC(=O)[C@H](CC(N)=O)NC(=O)[C@H](CCC(N)=O)NC1=O ([Mpa]YIQNCPSG-NH2; disulfide 1-6)	0.65	12	> 1000	> 100	0.056
